US20230159891A1, “T CELL PROGENITOR PRODUCTION METHOD” (Kyoto University, priority 2020, published 2023)

What was measured:
[1] = system: Hemogenic endothelial cells (HECs) derived from iPS cells; test: Importance of SR1 and IL-3 in production of T cell progenitor (Example 3); format: cell-based, human; settings: 12 days culture
Method: Hemogenic endothelial cells (HECs) derived from iPS cells prepared in the same manner as in Example 1 were sorted by BD FACSAria® Fusion and re-suspended in a StemSpan SFEM II medium, followed by seeding the cells into a culture vessel (6-well plate) coated with RN and DLL4-Fc (225,000/6 wells). […] Halfway through the culture, on day 4 after the start of culture, 500 μl of the medium described above was added. On day 7 after the start of culture, a half amount of the medium was replaced. On day 12 after the start of culture, cells were collected with pipetting, and the cell number was measured. The cells were stained with the antibodies shown in Table 2 and measured with BD FACSAria™ Fusion.

[2] = system: Hemogenic endothelial cells (HECs) induced from iPS cells; test: Differentiation culture of iPS-derived hemogenic endothelial cells into CD34+/CD7+ T cell progenitors (Example 1); format: cell-based, human
Method: The cell population containing hemogenic endothelial cells (HECs) for use was a floating cell population obtained by differentiating iPS cells (Ff-I01s04: derived from peripheral blood mononuclear cells of a healthy individual) provided from the Center for iPS Cell Research and Application, Kyoto University, according to known methods (e.g., the methods disclosed in Cell Reports 2 (2012) 1722-1735, or WO2017/221975). Specifically, Ff-I01s04 was seeded at 1×10^6 cells/well in an ultra-low-attachment 6-well plate (Day 0). The cells were cultured under hypoxic conditions (5% 02) for 4 days in EB medium (StemPro-34 supplemented with 10 μg/ml human insulin, 5.5 μg/ml human transferrin, 5 ng/ml sodium selenite, 2 mM L-glutamine, […] α-monothioglycerol, and 50 μg/ml ascorbic acid 2-phosphate) supplemented with 50 ng/ml BMP4, 50 ng/ml bFGF, 50 ng/ml VEGF, and 2 μM SB431542 (Day 4). Subsequently, culture was further performed in a medium supplemented with 50 ng/ml bFGF, 50 ng/ml VEGF, and 50 ng/ml SCF for 4 days (Day 8), thereby obtaining a cell population containing HECs. The floating cell population containing HECs were stained with the following antibody set. […] On day 11 after the start of culture, cells were collected with pipetting, and the cell number was measured. […]

CD34^+ cells = settings: NPL 5 (Boitano et al.); cited from earlier work

Q: For `CC(C)n1cnc2c(NCCc3ccc(O)cc3)nc(-c3csc4ccccc34)nc21` [SR1, 4-(2-((2-(benzo[b]thiophen-3-yl)-9-isopropyl-9H-purin-6-yl)amino)ethyl)phenol], which “expression level of CD34” value ([1]; flow cytometry, control vs -SR1 condition, FIG. 4) is on record?
A: The value was “plays an important role in maintaining the expression level of CD34”.

Q: And the “cell proliferation (cell number) when the factor is excluded from the additives” value ([1]; control: 1 nM SR1, 10 ng/ml IL-3 plus SCF, Flt3L, TPO, IL-7, IL-6, FIG. 3)?
A: The value was “reduced”.

Q: What about the cell growth ([2]; 10 days of culture, 1 nM SR1 with SCF, Flt3L, TPO, IL-7, IL-6, IL-3 in StemSpan SFEM II on RetroNectin/DLL4-Fc coated plate) of the same compound?
A: Its cell growth is “about 150 fold”.

Q: What about the “proportion of cells that were proT (CD34+/CD7+) cells” value ([2]; same culture as E1, flow cytometry after culture) of the same compound?
A: Its value is “about 25%”.

Q: And the “expansion of CD34+ cells” value (CD34^+ cells)?
A: The value was “promoted expansion”.
